Experiment: xn = mol fraction of the nth substance listed

CCC(=O)O + Cc1ccccc1
viscosity [mPa·s], 101.33 kPa
Conditions	293.15 K	303.15 K	308.15 K	313.15 K	323.15 K
x1 = 0.1231	–	–	0.5358	–	–
x1 = 0.2366	–	–	0.5532	–	–
x1 = 0.3487	–	–	0.5721	–	–
x1 = 0.4523	–	–	0.597	–	–
x1 = 0.5546	–	–	0.6271	–	–
x1 = 0.6523	–	–	0.6628	–	–
x1 = 0.7435	–	–	0.702	–	–
x1 = 0.832	–	–	0.7411	–	–
x1 = 0.9187	–	–	0.8128	–	–
x2 = 0.0286	1.06	0.9144	–	0.8218	0.7431
x2 = 0.072	1.009	0.8713	–	0.7818	0.6965
x2 = 0.1175	0.967	0.8298	–	0.751	0.672
x2 = 0.1497	0.9304	0.7997	–	0.7176	0.6478
x2 = 0.2309	0.8623	0.7424	–	0.6663	0.5978
x2 = 0.3182	0.806	0.6911	–	0.6194	0.5682
x2 = 0.4118	0.7554	0.6539	–	0.5909	0.5342
x2 = 0.5137	0.7079	0.6205	–	0.5536	0.5047
x2 = 0.555	0.6938	0.6095	–	0.5469	0.4952
x2 = 0.6209	0.6768	0.5898	–	0.5292	0.4824
x2 = 0.6913	0.6606	0.5743	–	0.5131	0.4666
x2 = 0.7372	0.6419	0.5603	–	0.5035	0.4574
x2 = 0.787	0.6276	0.5507	–	0.494	0.4506
x2 = 0.8644	0.6088	0.5364	–	0.4799	0.4372
x2 = 0.9714	0.5928	0.5259	–	0.4684	0.4295

CC(=O)CCC(=O)O + CC[N+](CC)(CC)CC.[Br-]
101 kPa, x1 = 0.75
Conditions	viscosity [mPa·s]
293.15 K	149
303.15 K	76.98
313.15 K	42.42
323.15 K	28.81

CCC(=O)O + CCO
308.15 K, 101 kPa
Conditions	viscosity [mPa·s]
x1 = 0.0674	1.035
x1 = 0.1373	1.062
x1 = 0.2156	1.095
x1 = 0.2983	1.125
x1 = 0.3898	1.151
x1 = 0.4885	1.167
x1 = 0.5987	1.16
x1 = 0.7173	1.119
x1 = 0.7834	1.081
x1 = 0.8532	1.043
x1 = 0.9225	0.9581

CC12CCC(CC1)C(C)(C)O2 + C=CC(C)(O)CCC=C(C)C
viscosity [mPa·s], 101.33 kPa
Conditions	298.15 K	313.15 K
x1 = 0.0536	4.296	2.489
x1 = 0.1357	4.062	2.401
x1 = 0.2205	3.835	2.316
x1 = 0.3081	3.614	2.236
x1 = 0.4288	3.347	2.138
x1 = 0.562	3.093	2.048
x1 = 0.605	3.019	2.023
x1 = 0.6809	2.9	1.983
x1 = 0.8027	2.74	1.933
x1 = 0.8783	2.66	1.91
x1 = 0.9599	2.591	1.892

O=[N+]([O-])[O-].[Li+] + N
293.15 K, 101 kPa
Conditions	viscosity [mPa·s]
x1 = 0.026	0.168
x1 = 0.059	0.228
x1 = 0.096	0.32
x1 = 0.174	0.602

Nc1cccc(Cl)c1 + O=[N+]([O-])c1ccccc1
viscosity [mPa·s], 100 kPa
Conditions	x1 = 0.5896	x1 = 0.6785	x1 = 0.7825
303.15 K	–	–	3.915
318.15 K	2.615	2.755	–

CC(=O)CCC(=O)O + CCCC[N+](CCCC)(CCCC)CCCC.[Br-]
viscosity [mPa·s], 101 kPa
Conditions	293.15 K	298.15 K	303.15 K	308.15 K	313.15 K	318.15 K	323.15 K
x1 = 0.75	376.5	–	175.1	–	93.88	–	53.38
x2 = 0.25	–	261.9	169.6	118.6	89.13	64.47	46.13

C1C[C@@H]2[C@H]3CC[C@H](C3)[C@@H]2C1 + CCCCCCCC
viscosity [mPa·s], 100 kPa
Conditions	x1 = 0.1007	x1 = 0.2005	x1 = 0.2991	x1 = 0.4	x1 = 0.5001	x1 = 0.5986	x1 = 0.6988	x1 = 0.8019	x1 = 0.9005
293.15 K	0.616	0.697	0.806	0.956	1.085	1.282	1.537	1.896	2.342
298.15 K	0.582	0.655	0.756	0.892	1.007	1.187	1.415	1.735	2.13
303.15 K	0.551	0.618	0.711	0.83	0.94	1.102	1.311	1.597	1.95
308.15 K	0.523	0.585	0.67	0.78	0.879	1.027	1.215	1.475	1.793
313.15 K	0.499	0.555	0.634	0.733	0.825	0.96	1.13	1.367	1.654

Nc1cccc(Cl)c1 + CCCCCCO
viscosity [mPa·s], 101 kPa
Conditions	x1 = 0.1167	x1 = 0.2291	x1 = 0.3375	x1 = 0.4421	x1 = 0.5431	x1 = 0.6407	x1 = 0.735	x1 = 0.8263	x1 = 0.9145
303.15 K	3.905	3.925	3.95	3.98	4.014	4.056	4.104	4.156	4.205
308.15 K	3.383	3.417	3.454	3.497	3.545	3.598	3.654	3.715	3.776
313.15 K	2.939	2.976	3.017	3.064	3.115	3.17	3.229	3.292	3.357
318.15 K	2.662	2.681	2.707	2.738	2.773	2.814	2.857	2.906	2.959

O=C(O)c1ccccc1O + CCCCO
viscosity [mPa·s]
Conditions	308.15 K	313.15 K	318.15 K	323.15 K
101 kPa, x1 = 0.14	2.453	–	–	–
101 kPa, x1 = 0.173	2.656	–	–	–
101 kPa, x1 = 0.193	2.761	–	–	–
101.33 kPa, x1 = 0.14	2.453	2.187	1.951	1.736
101.33 kPa, x1 = 0.193	2.761	2.375	2.154	1.928

CCC(=O)O + C[N+](C)(C)CCO.[Cl-]
101 kPa, x2 = 0.333
Conditions	viscosity [mPa·s]
293.15 K	70.98
298.15 K	55.91
303.15 K	44.79
308.15 K	36.45
313.15 K	30.06
318.15 K	25.09
323.15 K	21.19

CCC(=O)O + CC#N
101 kPa
Conditions	viscosity [mPa·s]
298.15 K, x1 = 0.0727	0.3871
298.15 K, x1 = 0.1499	0.4326
298.15 K, x1 = 0.2322	0.49
298.15 K, x1 = 0.3199	0.5588
298.15 K, x1 = 0.4136	0.6378
298.15 K, x1 = 0.5141	0.7247
298.15 K, x1 = 0.6221	0.8156
298.15 K, x1 = 0.7383	0.9048
298.15 K, x1 = 0.864	0.9833
298.35 K, x1 = 0.00118	0.3554
298.36 K, x1 = 0.000675	0.3524
298.37 K, x1 = 0.001631	0.3536
299.33 K, x1 = 0.002851	0.3563
301.03 K, x1 = 0.00118	0.3451
301.05 K, x1 = 0.000675	0.3437
301.96 K, x1 = 0.002851	0.3511
302.04 K, x1 = 0.001631	0.3472
303.03 K, x1 = 0.00118	0.338
303.04 K, x1 = 0.000675	0.3378
304.04 K, x1 = 0.001631	0.3356
304.09 K, x1 = 0.002851	0.3401
305.01 K, x1 = 0.00118	0.3316
305.04 K, x1 = 0.000675	0.3319
305.99 K, x1 = 0.002851	0.3324
306.1 K, x1 = 0.001631	0.3288
308.03 K, x1 = 0.00118	0.3228
308.04 K, x1 = 0.000675	0.3223
308.15 K, x1 = 0.0727	0.3411
308.15 K, x1 = 0.1499	0.3841
308.15 K, x1 = 0.2322	0.4373
308.15 K, x1 = 0.3199	0.4999
308.15 K, x1 = 0.4136	0.5703
308.15 K, x1 = 0.5141	0.646
308.15 K, x1 = 0.6221	0.7227
308.15 K, x1 = 0.7383	0.7943
308.15 K, x1 = 0.864	0.8513
309 K, x1 = 0.002851	0.3236
309.06 K, x1 = 0.001631	0.3198
311.01 K, x1 = 0.000675	0.3134
311.01 K, x1 = 0.00118	0.3139
311.96 K, x1 = 0.002851	0.3161
312.06 K, x1 = 0.001631	0.3112
318.15 K, x1 = 0.0727	0.3007
318.15 K, x1 = 0.1499	0.345
318.15 K, x1 = 0.2322	0.3948
318.15 K, x1 = 0.3199	0.4493
318.15 K, x1 = 0.4136	0.5074
318.15 K, x1 = 0.5141	0.567
318.15 K, x1 = 0.6221	0.6251
318.15 K, x1 = 0.7383	0.6772
318.15 K, x1 = 0.864	0.7168

CCCCCCCCCCCCCC[P+](CCCCCC)(CCCCCC)CCCCCC.c1c[n-]nn1 + O
Conditions	viscosity [mPa·s]
298.15 K, 100 kPa, x2 = 0.8003	106

CCC(=O)O + CCCO
308.15 K, 101 kPa
Conditions	viscosity [mPa·s]
x1 = 0.0416	1.42
x1 = 0.084	1.443
x1 = 0.1244	1.439
x1 = 0.1683	1.368
x1 = 0.2579	1.351
x1 = 0.3504	1.328
x1 = 0.4481	1.289
x1 = 0.5489	1.242
x1 = 0.6538	1.178
x1 = 0.7644	1.096
x1 = 0.8223	1.055
x1 = 0.8798	1.006
x1 = 0.9384	0.9669

From the CheMixHub viscosity set
